Values quoted from earlier work as cited in US20260042735A1, “BENZYLTRYPTAMINE COMPOUNDS” (priority 2021, published 2026).
pEC50, pKi: −log10 of the molar value.

Tests used:
SERT = SERT (Homo sapiens (Human), UniProt P31645); conditions: cited from earlier work
5-HT1B = 5-HT1B (Homo sapiens (Human), UniProt P28222); conditions: cited from earlier work
5-HT1D = 5-HT1D (Homo sapiens (Human), UniProt P28221); conditions: cited from earlier work
5-HT3 = 5-HT3 (Homo sapiens (Human), UniProt P46098); conditions: read-out: Ki 5-HT3; cited from earlier work
5-HT5 = 5-HT5 (Homo sapiens (Human), UniProt P47898); conditions: cited from earlier work
5-HT6 = 5-HT6 (Homo sapiens (Human), UniProt P50406); conditions: cited from earlier work
5-HT7 = 5-HT7 (Homo sapiens (Human), UniProt P34969); conditions: cited from earlier work
dopamine receptors = conditions: cited from earlier work
human 5-HT2A receptor = human 5-HT2A receptor (Homo sapiens (Human), UniProt P28223); conditions: cited from earlier work
5HT2B receptor [1] = target: T1, 5HT2B receptor (Homo sapiens, UniProt P41595); conditions: cited from earlier work
5HT2C receptor = 5HT2C receptor (Homo sapiens, UniProt P28335); conditions: cited from earlier work
5HT2B receptor [2] = target: T1, 5HT2B receptor; conditions: cited from earlier work; remark: listed apart in the source
mouse OCD model = conditions: cited from earlier work
mouse head twitch = conditions: much lower potency relative to psilocin; cited from earlier work

T1 sequence (P41595 whole entry, looked up): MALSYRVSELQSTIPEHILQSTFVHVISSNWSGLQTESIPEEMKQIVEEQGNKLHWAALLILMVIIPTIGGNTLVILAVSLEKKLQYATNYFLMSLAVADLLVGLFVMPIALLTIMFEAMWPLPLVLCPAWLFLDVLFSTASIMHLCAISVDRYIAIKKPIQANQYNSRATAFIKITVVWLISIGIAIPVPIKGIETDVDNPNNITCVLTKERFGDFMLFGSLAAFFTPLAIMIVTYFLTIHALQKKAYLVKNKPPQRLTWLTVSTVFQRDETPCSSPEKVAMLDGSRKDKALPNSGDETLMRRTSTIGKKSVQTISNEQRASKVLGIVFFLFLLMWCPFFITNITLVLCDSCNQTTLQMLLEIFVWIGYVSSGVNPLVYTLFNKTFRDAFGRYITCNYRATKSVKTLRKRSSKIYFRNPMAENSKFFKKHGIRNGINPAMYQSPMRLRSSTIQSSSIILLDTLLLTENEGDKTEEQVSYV
Sequence of 5HT2C receptor (P28335 33-458 limits assumed): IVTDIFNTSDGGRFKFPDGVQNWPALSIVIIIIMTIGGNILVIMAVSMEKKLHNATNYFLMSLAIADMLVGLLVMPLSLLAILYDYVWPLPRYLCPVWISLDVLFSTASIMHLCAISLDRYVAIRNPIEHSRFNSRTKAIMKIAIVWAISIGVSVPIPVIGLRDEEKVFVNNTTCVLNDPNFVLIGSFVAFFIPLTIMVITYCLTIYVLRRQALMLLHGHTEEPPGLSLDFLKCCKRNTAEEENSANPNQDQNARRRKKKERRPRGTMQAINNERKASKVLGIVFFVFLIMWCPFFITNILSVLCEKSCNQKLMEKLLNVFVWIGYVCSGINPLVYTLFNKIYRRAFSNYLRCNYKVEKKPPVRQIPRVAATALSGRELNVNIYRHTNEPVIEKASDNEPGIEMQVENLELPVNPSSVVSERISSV
Sequence of 5-HT1D (P28221 whole entry, looked up, species assumed): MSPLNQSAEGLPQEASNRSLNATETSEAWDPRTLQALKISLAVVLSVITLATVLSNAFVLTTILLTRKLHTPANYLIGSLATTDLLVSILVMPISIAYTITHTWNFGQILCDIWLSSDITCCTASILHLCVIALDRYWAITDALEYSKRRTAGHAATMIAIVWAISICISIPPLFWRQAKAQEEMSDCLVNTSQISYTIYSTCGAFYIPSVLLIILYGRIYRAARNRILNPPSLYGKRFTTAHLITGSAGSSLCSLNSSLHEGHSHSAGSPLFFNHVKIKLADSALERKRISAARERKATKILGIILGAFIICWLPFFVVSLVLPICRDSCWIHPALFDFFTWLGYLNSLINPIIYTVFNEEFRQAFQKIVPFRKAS
Sequence of 5-HT5 (P47898 whole entry, looked up, species assumed): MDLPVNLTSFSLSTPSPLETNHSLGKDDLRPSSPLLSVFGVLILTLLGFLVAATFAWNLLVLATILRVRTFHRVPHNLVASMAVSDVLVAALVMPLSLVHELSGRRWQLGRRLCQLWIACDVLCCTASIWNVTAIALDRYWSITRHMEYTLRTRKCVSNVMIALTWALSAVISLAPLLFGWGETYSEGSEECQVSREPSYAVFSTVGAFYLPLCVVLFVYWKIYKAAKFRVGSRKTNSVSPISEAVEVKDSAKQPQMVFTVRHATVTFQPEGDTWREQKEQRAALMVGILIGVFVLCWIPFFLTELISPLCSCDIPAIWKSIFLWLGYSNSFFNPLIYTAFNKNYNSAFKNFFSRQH
Sequence of 5-HT1B (P28222 whole entry, looked up, species assumed): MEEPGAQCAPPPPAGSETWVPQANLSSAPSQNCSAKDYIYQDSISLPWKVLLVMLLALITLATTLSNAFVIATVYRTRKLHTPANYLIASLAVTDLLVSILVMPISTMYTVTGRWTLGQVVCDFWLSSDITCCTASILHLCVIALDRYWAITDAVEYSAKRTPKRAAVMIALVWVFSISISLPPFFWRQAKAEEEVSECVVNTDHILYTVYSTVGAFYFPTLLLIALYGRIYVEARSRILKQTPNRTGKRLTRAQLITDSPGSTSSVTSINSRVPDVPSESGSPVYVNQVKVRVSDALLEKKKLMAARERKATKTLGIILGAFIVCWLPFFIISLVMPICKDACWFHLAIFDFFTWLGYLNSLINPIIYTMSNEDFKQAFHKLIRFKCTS
Sequence of 5-HT3 (P46098 whole entry, looked up, species assumed): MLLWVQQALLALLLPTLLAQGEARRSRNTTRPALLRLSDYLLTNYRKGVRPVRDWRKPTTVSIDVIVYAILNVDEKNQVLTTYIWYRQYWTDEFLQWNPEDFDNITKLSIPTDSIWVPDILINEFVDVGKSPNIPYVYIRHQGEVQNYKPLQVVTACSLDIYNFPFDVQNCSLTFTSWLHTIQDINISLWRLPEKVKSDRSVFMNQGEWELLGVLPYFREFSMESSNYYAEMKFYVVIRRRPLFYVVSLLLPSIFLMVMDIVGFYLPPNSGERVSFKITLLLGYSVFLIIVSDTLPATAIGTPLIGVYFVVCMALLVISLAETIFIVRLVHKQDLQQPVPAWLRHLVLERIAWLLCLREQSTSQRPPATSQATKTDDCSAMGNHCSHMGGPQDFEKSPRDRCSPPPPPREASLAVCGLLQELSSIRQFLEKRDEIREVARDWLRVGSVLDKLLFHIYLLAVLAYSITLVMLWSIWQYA
Sequence of 5-HT7 (P34969 whole entry, looked up, species assumed): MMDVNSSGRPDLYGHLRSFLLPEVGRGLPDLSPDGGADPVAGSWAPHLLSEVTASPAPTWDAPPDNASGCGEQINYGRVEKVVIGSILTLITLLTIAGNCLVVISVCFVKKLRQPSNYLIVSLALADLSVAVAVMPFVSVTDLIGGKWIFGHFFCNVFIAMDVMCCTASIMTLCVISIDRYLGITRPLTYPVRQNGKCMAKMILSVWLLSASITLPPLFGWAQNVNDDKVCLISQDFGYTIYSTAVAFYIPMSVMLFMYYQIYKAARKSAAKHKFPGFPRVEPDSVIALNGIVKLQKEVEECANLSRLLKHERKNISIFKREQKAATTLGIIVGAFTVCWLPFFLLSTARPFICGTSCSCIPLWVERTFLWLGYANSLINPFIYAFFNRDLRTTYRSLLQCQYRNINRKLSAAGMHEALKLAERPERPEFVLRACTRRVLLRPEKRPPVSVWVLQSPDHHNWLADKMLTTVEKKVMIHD
Sequence of 5-HT6 (P50406 whole entry, looked up, species assumed): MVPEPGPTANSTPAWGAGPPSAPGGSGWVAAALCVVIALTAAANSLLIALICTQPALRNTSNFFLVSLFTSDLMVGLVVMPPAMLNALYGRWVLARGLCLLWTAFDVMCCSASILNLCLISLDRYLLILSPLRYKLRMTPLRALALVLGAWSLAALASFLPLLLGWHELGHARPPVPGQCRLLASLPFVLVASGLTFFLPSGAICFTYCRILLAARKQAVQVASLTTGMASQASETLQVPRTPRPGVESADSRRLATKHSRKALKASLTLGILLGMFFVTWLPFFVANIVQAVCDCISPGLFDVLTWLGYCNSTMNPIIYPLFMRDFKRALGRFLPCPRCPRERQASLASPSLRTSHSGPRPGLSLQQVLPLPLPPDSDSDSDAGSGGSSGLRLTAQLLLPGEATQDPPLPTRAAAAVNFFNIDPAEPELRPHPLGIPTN

| SMILES | pKi (SERT) | pKi (5-HT1B) | pKi (5-HT1D) | pKi (5-HT3) | pKi (5-HT5) | pKi (5-HT6) | pKi (5-HT7) | Effect on dopamine receptors (dopamine receptors) | Functional efficacy response vs serotonin, 5-HT2A (human 5-HT2A receptor) | pEC50 (human 5-HT2A receptor; phosphoinositol hydrolysis, read-out: Agonist potency at human 5-HT2A receptor) | Agonist activity at 5-HT2B receptors (5HT2B receptor [1]) | pEC50 (5HT2C receptor; phosphoinositol hydrolysis, read-out: Agonist potency at human 5-HT2C receptor) | Functional efficacy response vs serotonin, 5-HT2C (5HT2C receptor; serotonin set at 100%) | Antagonist potency at 5-HT2B receptors (5HT2B receptor [2]) | Efficacy in mouse OCD model (mouse OCD model) | Efficacy in mouse head twitch assay (mouse head twitch) |
| --- | --- | --- | --- | --- | --- | --- | --- | --- | --- | --- | --- | --- | --- | --- | --- | --- |
| CN(C)CCc1c[nH]c2cccc(O)c12 [Psilocin, psilocin] | 5.42 | 6.66 | 7.44 | < 5.00 | 7.08 | 7.24 | 8.46 | no significant effect |  |  |  |  |  |  |  |  |
| CN(C)CCc1cn(C)c2cccc(O)c12 [compound 1] |  |  |  |  |  |  |  |  | ca. 30% | 6.20 | inactive | 7.92 | ca. 45% | 38 nM | efficacy in a mouse OCD model demonstrated | efficacious |
